Source: patent US7820699B2, “Cyclic amines” (Hoffmann-La Roche Inc., priority 2005, dated 2010)

biological target: T1, human factor Xa (Homo sapiens, UniProt P00742); experiment: chromogenic peptide substrate assay, inhibition of factor Xa; type: biochemical; conditions: human factor Xa 3 nM, chromogenic substrate S-2222, pH 7.8, room temperature; Ki from IC50 by Cheng-Prusoff
T1 construct: purchased Enzyme Research Laboratories
Description: Factor Xa activity was measured spectrophotometrically in microtiter plates in a final volume of 150 μl using the following conditions: Inhibition of human factor Xa (Enzyme Research Laboratories) was tested at an enzyme concentration of 3 nM using the chromogenic substrate S-2222 (Chromogenix AB, Molndal, Sweden) at […]. The reaction kinetics of the enzyme and the substrate were linear with both time and the enzyme concentration. The inhibitors were dissolved in DMSO and tested at various concentrations up to 100 μM. The inhibitors were diluted using HNPT buffer consisting of HEPES 100 mM, NaCl 140 mM, PEG 6000 0.1% and Tween 80 0.02%, pH 7.8. The cleavage of S-2222 by human factor Xa was followed at 405 nm for 5 minutes at room temperature. The velocity of the reaction was determined by the autoreader from the slope of the linear regression fit to 7 time points (1 minute). The initial velocity for each inhibitor concentration was determined by the slope of at least 4 time points in the linear phase by a linear regression fit […]. Apparent dissociation constants Ki were calculated according to Cheng and Prusoff [Cheng, Y. C.; Prusoff, W. H. Relationship between the inhibition constant (Ki) and the concentration of the inhibitor that causes 50 percent inhibition (IC50) of an enzyme reaction. Biochem. Pharmacol. 1973, 22, 3099-3108.] based on the IC50 and the respective Km, determined previously (Ki=IC50/(1+S/Km)). The Km for the substrate used was determined under the conditions of the test with at least 5 substrate concentrations ranging from 0.5 to 15 times Km. [Lottenberg R, Hall J A, Blinder M, Binder E P, Jackson C M., The action of thrombin on peptide p-nitroanilide substrates. Substrate selectivity and examination of hydrolysis under different reaction conditions. Biochim Biophys Acta. 1983 Feb. 15; 742(3):539-57]. According to Eadie [Eadie G. S. The inhibition of cholinesterase by physostigmine and prostigmine. J. Biol. Chem. 1942, 146, 85-93.], the Km for S-2222 amounted to 613 μM.

T1 sequence (P00742 235-488 limits assumed): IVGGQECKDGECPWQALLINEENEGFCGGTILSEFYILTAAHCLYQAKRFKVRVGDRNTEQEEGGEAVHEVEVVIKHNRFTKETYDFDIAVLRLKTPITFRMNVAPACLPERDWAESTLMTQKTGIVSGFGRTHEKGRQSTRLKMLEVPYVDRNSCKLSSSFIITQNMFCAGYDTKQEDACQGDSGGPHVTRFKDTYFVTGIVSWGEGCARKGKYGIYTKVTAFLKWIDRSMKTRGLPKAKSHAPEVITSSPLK
T1 sequence (P00742 41-179 partner limits assumed): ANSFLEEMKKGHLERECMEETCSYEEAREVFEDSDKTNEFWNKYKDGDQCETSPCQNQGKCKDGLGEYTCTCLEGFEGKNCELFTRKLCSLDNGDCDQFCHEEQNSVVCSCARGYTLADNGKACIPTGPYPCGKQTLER

SMILES	Ki [µM]
CC(C(=O)Nc1ccc(-n2ccccc2=O)cc1F)N1CC[C@@H](NC(=O)c2ccc(Cl)s2)C1 (stereo partly drawn) [Example 6, 5-chloro-thiophene-2-carboxylic acid ((R)-1-{1-[2-fluoro-4-(2-oxo-pyridin-1-yl)-phenylcarbamoyl]-ethyl}-pyrrolidin-3-yl)-amide]	0.017
CO[C@H]1CN(CC(=O)Nc2ccc(N3CCOCC3=O)cc2F)C[C@@H]1NC(=O)c1ccc(Cl)s1 [Example 26, 5-chloro-thiophene-2-carboxylic acid ((3S,4S)-1-{[2-fluoro-4-(3-oxo-morpholin-4-yl)-phenylcar-bamoyl]-methyl}-4-methoxy-pyrrolidin-3-yl)-amide]	0.014
O=C(NC[C@H]1CCN(C(=O)Nc2ccc(-n3ccccc3=O)cc2F)C1)c1ccc(Cl)s1 [Example 54, (R)-3-{[(5-chloro-thiophene-2-carbonyl)-amino]-methyl}-pyrrolidine-1-carboxylic acid[2-fluoro-4-(2-oxo-2H-pyridin-1-yl)-phenyl]-amide]	0.013
O=C(NC[C@@H]1CN(C(=O)Nc2ccc(-n3ccccc3=O)cc2F)C[C@H]1C(F)(F)F)c1ccc(Cl)s1 [Example 77, (3R,4S)-3-{[(5-chloro-thiophene-2-carbonyl)-amino]-methyl}-4-trifluoromethyl-pyrrolidine-1-carboxy-lic acid[2-fluoro-4-(2-oxo-2H-pyridin-1-yl)-phenyl]-amide]	0.008
CN(C1CN(C(=O)Nc2ccc(-n3ccccc3=O)cc2F)C[C@H]1CNC(=O)c1ccc(Cl)s1)S(C)(=O)=O (stereo partly drawn) [Example 85, (R)-3-{[(5-chloro-thiophene-2-carbonyl)-amino]-methyl}-4-(methanesulfonyl-methyl-amino)-pyrrolidine-1-carboxylic acid[2-fluoro-4-(2-oxo-2H-pyridin-1-yl)-phenyl]-amide]	0.012
